In ChEMBL document CHEMBL5729124, “Autotaxin inhibitor compounds” (2022) one finds IC50 data, which are given here for 3 molecules.

pIC50: −log10 of the molar value.

This experiment concerns the target Autotaxin (Homo sapiens, UniProt Q13822). Kind of experiment: Human Autotaxin Assay: ATX activity is assayed in concentrated conditioned media from Hep3B human hepatocellular carcinoma cells by measuring the amount of choline released from the substrate, lysophosphatidylcholine (LPC) as it is cleaved to LPA. Conditioned media is collected from confluent Hep3B cells and concentrated 20-fold using Centriprep-30 filter devices (Millipore).
By pIC50 is commonly meant the IC50 on a negative log10 scale, so that one unit is a factor of ten. For `CCCn1cc(-n2c(Br)c(Sc3cccc(C(=O)O)c3)c3ccc(Cl)cc32)cn1`, the pIC50 is greater than 6.30.

As to `C#CCCCCn1cc(-n2c(C3CC3)c(Sc3cccc(C(=O)O)c3F)c3ccc(Cl)c(F)c32)cn1`, the pIC50 is greater than 6.30.

On to `CC(C)(CO)Cn1cc(-n2c(C3CC3)c(Sc3cccc(C(=O)O)c3F)c3ccc(Cl)c(F)c32)cn1`, for which the pIC50 is greater than 6.30.
